# Source: patent US6890523B2 (priority 1999, dated 2005)
# Tested on: C. difficile
# Settings: hamster; relapse/recurrence of CDAD
# Description: Compounds were evaluated for their ability to inhibit the activity of C. difficile toxins the hamster model of C. difficile colitis. Male hamsters (80-100 g) were purchased Biobreeders Inc. (Falmouth, Mass.). All animals were maintained in groups of five in microisolator cages on autoclaved bedding (Beta Chips) and given free access to autoclaved chow and autoclaved, filtered water. Animals were rested approximately 1 week following arrival and prior to initiation of a study. A C. difficile strain initially isolated from a human C. difficile colitis was used to infect the animals. This strain (HUC2-4) produces moderate to high levels of toxins in vitro and in vivo. A suspension of 10^6-10^7 bacterial cells/ml was prepared from an overnight broth culture and 0.1 ml was administered by oral gavage on day −1. Twenty-four hours later, each animal was injected subcutaneously with Cleocin Phosphate IV® at a dose of 10 mg/kg. Polymers were administered to groups of ten animals by gavage three times daily (t.i.d). The dose of polymers was 25-100 mg/day, administered in three divided doses of 0.75 ml each. Initiation and duration of dosing varied according to the treatment regimens as described below. Animals were observed daily for morbidity or mortality. Additional parameters assessed were general appearance, time to onset of clinical signs, and presence or absence of diarrhea (“wet tail”). […]
smiles,measurement,value
Cc1ncc([N+](=O)[O-])n1CCO [metronidazole],time to death after discontinuing metronidazole,3 to 6 days
